The record followed here is patent publication US20070232650A1, “Malate salts, and polymorphs of (3S,5S)-7-[3-amino-5-methyl-piperidinyl]-1-cyclopropyl-1,4-dihydro-8-methoxy-4-oxo-3-quinolinecarboxylic acid” (The Procter & Gamble Company, priority 2006, published 2007).

A short description of data set [1]: Chemical stability of salt forms. Format: physicochemical. The conditions noted are these: upon scale up. The source says: Malate salts of 7-[3S-amino-5S-methyl-piperidinyl]-1-cyclopropyl-1,4-dihydro-8-methoxy-4-oxo-3-quinolinecarboxylic acid may be formed and isolated under practical manufacturing conditions. Use of the chiral malate for salt formation (as the racemic mix or the chirally pure forms) may in some instances assist with chiral purification of 7-[3S-amino-5S-methyl-piperidinyl]-1-cyclopropyl-1,4-dihydro-8-methoxy-4-oxo-3-quinolinecarboxylic acid. […] Using the same test methods, the anhydrate forms are shown to pick up moisture and spontaneously convert to the corresponding hydrated form upon exposure to humidity.

The nature of data set [2]: Solubility of isolated salt forms (salt screen).
Protocol: A salt screen is performed on 100 mg of free base. The isolated salt forms are evaluated by NMR, elemental analysis, TG-DTA, XRD, & HPLC.

As for `O=C(O)[C@H]1OC(O)[C@H](O)[C@@H](O)[C@@H]1O` (stereo partly drawn) [D-Glucuronate], the “Ease of Isolation (degradation)” value in data set [1] is “Degradation”. The Solubility in data set [2] (salt screen, Table 1) stood at 8 mg/mL.

`COc1c(N2C[C@@H](C)C[C@H](N)C2)ccc2c(=O)c(C(=O)O)cn(C3CC3)c12` (racemic) [DL-malate, hemi-hydrate, (3S,5S)-7-[3-amino-5-methyl-piperidinyl]-1-cyclopropyl-1,4-dihydro-8-methoxy-4-oxo-3-quinolinecarboxylic acid]: in data set [2] (salt screen, Table 1), the Solubility was 12 (hemi- mg/ml.

On to Fumarate, for which the Solubility in data set [2] (salt screen, Table 1) was 9 mg/mL.

Consider `COc1c(N2C[C@@H](C)C[C@H](N)C2)ccc2c(=O)c(C(=O)O)cn(C3CC3)c12` [Freebase, (3S,5S)-7-[3-amino-5-methyl-piperidinyl]-1-cyclopropyl-1,4-dihydro-8-methoxy-4-oxo-3-quinolinecarboxylic acid], for which the Solubility in data set [2] (water) was under 1 mg/mL.
